Counter-ions that a name gives are not always drawn.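 Following 48 hours of exposure in 96-well plates, responses at five concentrations were used to interpolate endpoints linearly. At the GI50, growth is halved.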 Calls of active or inactive are those of the source. Rule as the data show it: active = GI50 up to about 1.1 µM and inactive = higher.
Legend:
Test in all cases: inhibition of tumour cell growth, NCI panel, 48 h
HCT-116 = tested on: HCT-116
UACC-257 = tested on: UACC-257
SNB-19 = tested on: SNB-19
SW-620 = tested on: SW-620
NCI-H23 = tested on: NCI-H23
SK-MEL-5 = tested on: SK-MEL-5
CCRF-CEM = tested on: CCRF-CEM
U-251 = tested on: U-251
MOLT-4 = tested on: MOLT-4
K562 = tested on: K562
HCC 2998 = tested on: HCC 2998
786-0 = tested on: 786-0
NCI-H522 = tested on: NCI-H522
Malme-3M = tested on: Malme-3M
OVCAR-3 = tested on: OVCAR-3
NCI/ADR-RES = tested on: NCI/ADR-RES
ACHN = tested on: ACHN
TK-10 = tested on: TK-10
HOP-92 = tested on: HOP-92
SK-MEL-2 = tested on: SK-MEL-2

Measured: GI50

CCCCOC(=O)CC(CC(=O)OCCCC)(OC(C)=O)C(=O)OCCCC [ACETYLTRIBUTYL CITRATE]
inactive: HCT-116 56.4 µM | UACC-257 47.9 µM | SNB-19 > 200 µM | SW-620 > 130 µM | NCI-H23 60.8 µM | SK-MEL-5 16.1 µM | CCRF-CEM 76.9 µM | U-251 > 200 µM | MOLT-4 17.2 µM | K562 29.6 µM | HCC 2998 > 200 µM | 786-0 > 200 µM | NCI-H522 47.5 µM | Malme-3M 197 µM | OVCAR-3 > 200 µM | NCI/ADR-RES 91.6 µM | ACHN > 200 µM | TK-10 > 200 µM | HOP-92 72.4 µM | SK-MEL-2 > 200 µM

O=C(Cc1ccccc1)Nc1nc2ccc(Cl)cc2c2nc(-c3ccco3)nn12
inactive: HCT-116 14.8 µM | UACC-257 > 100 µM | SNB-19 > 35.7 µM | SW-620 > 100 µM | NCI-H23 47.1 µM | SK-MEL-5 89.5 µM | CCRF-CEM > 100 µM | U-251 16.8 µM | MOLT-4 > 100 µM | K562 > 100 µM | HCC 2998 > 100 µM | 786-0 10.1 µM | NCI-H522 > 100 µM | Malme-3M 53.7 µM | OVCAR-3 > 100 µM | NCI/ADR-RES > 41.2 µM | ACHN 5.02 µM | TK-10 > 35.1 µM | HOP-92 2.48 µM | SK-MEL-2 > 67.9 µM

CS(=O)(=O)OCCCNCCCOS(C)(=O)=O
inactive: HCT-116 1440 µM | UACC-257 1850 µM | SNB-19 1270 µM | SW-620 1140 µM | NCI-H23 904 µM | SK-MEL-5 1550 µM | CCRF-CEM 262 µM | U-251 893 µM | MOLT-4 189 µM | K562 1580 µM | HCC 2998 1280 µM | 786-0 881 µM | NCI-H522 1850 µM | Malme-3M 1590 µM | OVCAR-3 2630 µM | NCI/ADR-RES 1600 µM | ACHN 392 µM | TK-10 2020 µM | HOP-92 957 µM | SK-MEL-2 1940 µM

Nc1nc(Cl)cc(NCC2(CCO)CCC2)n1
inactive: HCT-116 > 100 µM | UACC-257 > 100 µM | SNB-19 > 100 µM | SW-620 > 100 µM | NCI-H23 > 100 µM | SK-MEL-5 > 100 µM | CCRF-CEM > 100 µM | U-251 > 100 µM | MOLT-4 > 100 µM | K562 > 100 µM | HCC 2998 > 100 µM | 786-0 > 100 µM | NCI-H522 > 100 µM | Malme-3M > 100 µM | OVCAR-3 > 100 µM | NCI/ADR-RES > 100 µM | ACHN > 100 µM | TK-10 > 100 µM | HOP-92 > 100 µM | SK-MEL-2 > 100 µM

CC1(C)CC(=O)c2c(nc3c4c([nH]c(-c5ccc([N+](=O)[O-])cc5)c24)CC(C)(C)C3)C1
inactive: HCT-116 41.1 µM | UACC-257 67 µM | SNB-19 48.4 µM | SW-620 47.4 µM | NCI-H23 48.5 µM | SK-MEL-5 26.2 µM | CCRF-CEM 10.1 µM | U-251 26.7 µM | MOLT-4 4.14 µM | K562 20.1 µM | HCC 2998 27.5 µM | 786-0 21.3 µM | NCI-H522 48.5 µM | Malme-3M > 100 µM | OVCAR-3 85.5 µM | NCI/ADR-RES 21.5 µM | ACHN 28 µM | TK-10 50.7 µM | HOP-92 19.9 µM | SK-MEL-2 35.2 µM

CNC(=S)N/N=C(\C)c1nc2cccnc2[nH]1
inactive: HCT-116 30 µM | UACC-257 60.8 µM | SNB-19 > 53.8 µM | SW-620 52.8 µM | SK-MEL-5 29.2 µM | CCRF-CEM 24.4 µM | U-251 39.8 µM | MOLT-4 31.9 µM | K562 95.3 µM | HCC 2998 19.1 µM | 786-0 43.7 µM | NCI-H522 22.8 µM | Malme-3M > 70.5 µM | OVCAR-3 18.6 µM | NCI/ADR-RES 15.3 µM | ACHN 38.9 µM | TK-10 32.5 µM | HOP-92 20.6 µM | SK-MEL-2 > 63.5 µM

N#Cc1c(-c2ccc([N+](=O)[O-])cc2)c(C#N)c(=O)n(NS(=O)(=O)c2ccccc2)c1O
inactive: HCT-116 > 100 µM | UACC-257 > 100 µM | SNB-19 18.5 µM | SW-620 > 100 µM | SK-MEL-5 > 100 µM | CCRF-CEM > 100 µM | U-251 > 100 µM | MOLT-4 > 100 µM | K562 > 100 µM | HCC 2998 > 100 µM | 786-0 > 100 µM | NCI-H522 > 100 µM | Malme-3M > 100 µM | OVCAR-3 > 100 µM | NCI/ADR-RES > 100 µM | ACHN > 100 µM | TK-10 > 100 µM | HOP-92 > 100 µM | SK-MEL-2 > 100 µM
